# Bridges are numbered along the chain shown (N, C = ends). Where no end group is shown, it is not given here.
# Columns and labels:
# [1] = tested on: human alkaline phosphatase (hALP) and human type I collagen (hCollagen I); assay: RT-PCR analysis of hALP and hCollagen I in human mesenchymal stem cells; format: cell-based
# Method: Human mesenchymal stem cells (3×10^4 cells) were seeded on a 6-well plate, followed by culture for 7 days in the presence of an osteoblast differentiation medium (Lonza) or a maintenance medium (Lonza). Peptide D (100 μM and 300 μM) was added to each well. Further, a peptide solvent was added to a control group. After culture, the cells were washed with PBS and dissolved in QIAzol Lysis Reagent (QIAGEN) (0.75 mL). Then, the solution was collected. The solution was left at room temperature for 5 minutes. Then, chloroform (Wako) (0.15 mL) was added, the resultant was admixed by turning upside down, and then the resultant was centrifuged under conditions of 4° C. and 12000×g for 15 minutes. The supernatant was collected in a new tube. RNA was isolated from the supernatant with the use of an EZ1 RNA universal tissue kit (QIAGEN) and Magtration System 12GC (QIAGEN). After determination of the RNA concentration, each RNA (250 ng) was subjected to electrophoresis with 1% agarose gel for confirmation of the occurrence or nonoccurrence of RNA degradation. Non-degraded RNAs (500 ng each) were subjected to RT-PCR. RT-PCR was performed using a ThermoScript RT-PCR System (Invitrogen) and random primers. […]
# Samples obtained after the PCR reaction were subjected to electrophoresis with 1% agarose gel. […] The obtained images were analyzed with a CSAnalyzer. […]
# C57BL/6CrjCrlj mice = assay: Peptide D administration to mice: bone density (SXA), pQCT and μCT analysis of femur; format: in vivo, mouse
# Method: A synthetic peptide was used for experiments. Synthetic peptide D is a cyclic peptide comprising the amino acid sequence represented by SEQ ID NO: 7, which consists of 9 amino acids and contains two cysteine residues binding to each other via a disulfide bond. […] The synthetic peptide was dissolved in 10% DMSO (Nacalai)/PBS to a concentration of 1 mg/ml.
# Subcutaneous administration of peptide D was carried out in a dose of 10 mg/kg at 8:00, 14:00, and 20:00 (three times daily) for 5 days. 5% DMSO/PBS was administered to the control group. Mice were dissected 12 hour after the completion of administration for 5 days and subjected to exsanguination. Thereafter, the femur and the tibia were collected from each mouse. The whole blood of each mouse was left at room temperature for 1 hour and then centrifuged under conditions of 5000 rpm and 4° C. for 5 min. The serum was collected in a new tube. The femur and the tibia of each mouse were fixed with cold 70% ethanol.
# Each femur fixed with ethanol was subjected to single energy X-ray absorptiometry (SXA) analysis (DCS-600EX-IIIR DXA for animals, ALOKA) for determination of bone density, bone mineral content, and bone surface area. The full length of each bone was divided into 20 regions. The bone density for each region was determined and actions of the peptide in each region were analyzed.
# Bone structure analysis was carried out by peripheral quantitative computed tomography (hereinafter abbreviated as pQCT) and micro-computed tomography (hereinafter abbreviated as μCT). Scan-Xmate-A080 (Comscantecno Co., Ltd.) was used for μCT and XCT-Research SA+(Stratec Medizintechnik GmbH) was used for pQCT. The dedicated software (3D-BON (RATOC)) was used for preparation of three-dimensional structural image and trabecular structure analysis with the use of μCT data. In addition, for analysis by pQCT, a region with a bone density of 395 mg/cm^3 or less was determined to be cancellous bone and a region with a bone density of 690 mg/cm^3 or more was determined to be cortical bone.
# Human osteoblasts = assay: ALP activity determination in human osteoblasts; format: cell-based; details: antibodies 100 ng/mL or 1 ng/mL; culture for 5 or 6 days
# Method: Seven days after differentiation, the culture supernatant was removed from each plate and the cells were fixed with an acetone/ethanol solution. The ALP activity was determined using p-nitrophenyl phosphate as a substrate. Specifically, a carbonate buffer (5 mM MgCl2, 50 mM NaHCO3) containing p-nitrophenyl phosphate (Nacalai) (1 mg/mL) was added to each well (100 μL/well), followed by incubation at 37° C. Then, the OD value at 405 nm was determined with the use of a microplate reader (BMG Labtech) for each well.
# The reagents such as anti-RANKL polyclonal antibodies and anti-RANKL monoclonal antibodies used in this Example were the same as those used in Example 4. In addition, an anti-RANKL monoclonal antibody ((C): clone 12A380) (ALEXIS), human OPGFc, and human RANKFc (R&D)) were used. ALP activity determination was carried out as in Example 1. All of the above antibodies are antibodies against mouse RANKL.
# Human osteoblasts were seeded on a 96-well plate (3.1×10^3/well) and a 48-well plate (7.65×10^3/well). After cell adhesion had taken place, differentiation was carried out using a medium containing 5 mM β-glycerophosphoric acid. The antibodies were added (100 ng/mL or 1 ng/mL) upon differentiation. Culture was carried out for 5 or 6 days, followed by ALP activity determination.
# [2] = μCT trabecular structure measurement
substance,measurement,setting,value
"peptide D: cyclic peptide of SEQ ID NO: 7, 9 amino acids, two cysteine residues bound via a disulfide bond; binds to RANKL (YCWSQYLCY; disulfide 2-8 (inferred))",expression levels of alkaline phosphatase and type I collagen,"[1]; 100 μM and 300 μM, 7-day differentiation",increased in a peptide-concentration-dependent manner
same,mRNA expression levels of alkaline phosphatase and type I collagen,"[1]; 300 μM, maintenance medium",caused increases in the mRNA expression levels
same,"bone mineral content (SXA, femur)",C57BL/6CrjCrlj mice; 10 mg/kg s.c. 3 times daily for 5 days,increase in bone mineral content
same,"bone density (SXA, femur)","C57BL/6CrjCrlj mice; 10 mg/kg s.c. 3 times daily for 5 days, p<0.05 vs control group",significant increase in bone density
same,bone density of each region (SXA20 partition analysis),"C57BL/6CrjCrlj mice; 6th to 9th regions from the distal end of the femur, p<0.05 vs control group",significant increase in bone density
same,bone resorption inhibition actions,C57BL/6CrjCrlj mice; based on trabecular structure measurement by μCT,weak actions
same,intimal circumference of the cortical bone,C57BL/6CrjCrlj mice; region 5 mm away from the distal end of the femur,shortened
same,cortical bone density (pQCT),"C57BL/6CrjCrlj mice; region 5 mm away from the distal end of the femur, p<0.05 vs control group",significant increase in cortical bone density
same,cancellous bone content (μCT),C57BL/6CrjCrlj mice; site 2 mm away from the distal end of the femur,increased
same,BV/TV of the cancellous bone,C57BL/6CrjCrlj mice; [2],increased
same,trabecular width of the cancellous bone,C57BL/6CrjCrlj mice; [2],increased
same,ALP activity,Human osteoblasts,significant increase in ALP activity

# From patent US20100260680A1, “NOVEL BONE MASS INCREASING AGENT” (ORIENTAL YEAST CO., LTD., priority 2007, published 2010)
